According to patent publication US20260272878A1, “ADAR1 INHIBITORS AND USES THEREOF” (THE WISTAR INSTITUTE OF ANATOMY AND BIOLOGY, priority 2023, published 2026):
“Also recorded” adds a separate entry of the source. Blank lines part the entries; values can stand above or below the compound they belong to.

Columns and labels:
[1] = test system: IMR90 normal fibroblast cells; assay: Cell killing / viability, IMR90; type: cell-based
Protocol: (§1) FIGS. 8A-8C show analysis of ADAR1i-124 effects in cancer cells. […] Viability was examined using the Apo Tox-Glo assay system. Control, 0.3% DMSO. Data: mean±SD (n=3). Significant differences identified by two-tailed Student's t-tests: *P<0.05, n.s., not significant. (FIG. 8B) Western blotting analysis of HeLa cells treated with ADAR1i-124 (10 μM).
(§2) FIGS. 9A-9C show dose-dependent killing of cancer cells and activation of IFN signaling. […] YUMM1.7 (FIG. 9B) and HGS2 cells (FIG. 9C) were treated with ADAR1i-124 at 10 μM (12 hrs). RNA samples were analyzed by qRT-PCR to monitor ISG expression levels. Data: mean±SD (n=3). Significant differences were identified by two-tailed Student's t-tests: ***P<0.001.
(§3) Dose-dependent selective killing of telomerase reactivated cancer cells was determined (FIG. 9A).

[2] = test system: HeLa non-ALT cancer cells; assay: Cancer cell killing / viability (Apo Tox-Glo), HeLa; type: cell-based, human; conditions: for Killing of HeLa cells: result in words
Protocol: as §1, §2, §3

ADAR1p110-WT = target: T1, ADAR1p110-WT (Homo sapiens, UniProt P55265); assay: Biacore SPR binding to ADAR1p110-WT
T1 construct: made in house; host or cells: Sf9 cells (baculovirus)
T1 sequence (P55265 1-931 isoform P55265-5): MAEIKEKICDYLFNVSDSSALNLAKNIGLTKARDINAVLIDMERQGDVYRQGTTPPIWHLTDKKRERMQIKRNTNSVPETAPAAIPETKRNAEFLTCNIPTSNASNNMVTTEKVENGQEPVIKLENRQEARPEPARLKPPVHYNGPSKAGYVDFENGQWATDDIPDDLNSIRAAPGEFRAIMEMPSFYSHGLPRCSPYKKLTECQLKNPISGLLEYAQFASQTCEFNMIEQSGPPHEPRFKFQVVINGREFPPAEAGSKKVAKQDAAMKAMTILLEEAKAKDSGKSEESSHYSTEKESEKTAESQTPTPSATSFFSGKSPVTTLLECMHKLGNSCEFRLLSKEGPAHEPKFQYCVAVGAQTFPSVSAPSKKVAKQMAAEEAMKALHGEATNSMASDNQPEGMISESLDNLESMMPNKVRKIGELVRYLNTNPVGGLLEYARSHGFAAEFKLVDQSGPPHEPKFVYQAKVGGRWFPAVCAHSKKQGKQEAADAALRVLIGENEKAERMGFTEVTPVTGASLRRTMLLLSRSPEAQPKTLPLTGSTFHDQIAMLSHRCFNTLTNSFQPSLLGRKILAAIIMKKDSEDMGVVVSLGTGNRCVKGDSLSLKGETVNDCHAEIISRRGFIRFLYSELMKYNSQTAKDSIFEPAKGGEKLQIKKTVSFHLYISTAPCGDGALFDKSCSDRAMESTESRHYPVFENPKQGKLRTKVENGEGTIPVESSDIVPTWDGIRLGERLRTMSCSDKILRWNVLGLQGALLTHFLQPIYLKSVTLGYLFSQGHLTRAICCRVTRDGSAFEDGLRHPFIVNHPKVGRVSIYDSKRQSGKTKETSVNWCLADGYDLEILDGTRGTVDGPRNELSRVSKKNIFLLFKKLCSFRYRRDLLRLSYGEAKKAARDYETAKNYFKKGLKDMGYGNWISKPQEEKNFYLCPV
Description: FIGS. 5A-5D show Biacore SPR analysis for binding of ADAR1i to ADAR1p110. (FIG. 5A) SPR analysis for binding kinetics of 8 compounds to ADAR1p110-WT. ADAR1 inhibition positive (ADAR1i-13, ADAR1i-120, ADAR1i-124) and negative compounds. (FIG. 5B, FIG. 5C) […] of SPR analysis for binding of ADAR1i-13 and ADAR1i-124 to ADAR1p110-WT and ADAR1p110-E912A as well as negative control proteins, GAPDH and HuR, are shown. […] ADAR1-E912, equivalent of ADAR2 E396, is located in the catalytic center.
No complete 3-D structure of ADAR1 is currently available. […] The glutamate E912 and E396 in ADAR1 and ADAR2, respectively, plays an important proton transfer function during hydrolytic deamination reaction (42, 43).

HeLa cells = assay: Western blotting of treated HeLa cells (DNA damage, M phase arrest, apoptosis); type: cell-based, human; conditions: 10 μM for ADAR1i-124
Protocol: as §1, §3

Binding to ADAR1p110-WT (ADAR1p110-WT): direct binding
SMILES: N#Cc1ccc(NC(=O)c2sc3ccccc3c2Cl)cc1 [ADAR1i-13, 3-chloro-N-(4-cyanophenyl)-1-benzothiophene-2-carboxamide]
Killing of IMR90 cells [1]: not ALT U2OS cells or IMR90 normal fibroblast cells
Killing of HeLa cells [2]: killed selectively
DNA damage, M phase arrest and apoptosis markers (HeLa cells): induced DNA damage, M phase arrest, and apoptosis

Binding to ADAR1p110-WT (ADAR1p110-WT): direct binding
SMILES: N#Cc1ccccc1NC(=O)c1sc2ccccc2c1Cl [ADAR1i-120]
Killing of IMR90 cells [1]: not ALT U2OS cells or IMR90 normal fibroblast cells
Killing of HeLa cells [2]: killed selectively
DNA damage, M phase arrest and apoptosis markers (HeLa cells): induced DNA damage, M phase arrest, and apoptosis

SMILES: N#Cc1ccc(NC(=O)c2c(Cl)c3ccccc3n2CO)cc1 [ADAR1i-124]
Killing of IMR90 cells [1]: not ALT U2OS cells or IMR90 normal fibroblast cells; also recorded: unaffected
Viability of HeLa cells ([2]; 10 μM, Apo Tox-Glo, control 0.3% DMSO): selectively reduced viability
IC50 ([2]; Homo sapiens, HeLa, read-out: IC50 for selective killing of HeLa cells): ~400 nM
Killing of HeLa cells [2]: killed selectively; also recorded: dose-dependently killed
Binding to ADAR1p110-WT (ADAR1p110-WT): direct binding
DNA damage, M phase arrest and apoptosis markers (HeLa cells): induced DNA damage, M phase arrest, and apoptosis; also recorded: upregulated g-H2AX, Histone 3 phosphorylated at Serine 10, and cleaved PARP bands
